US20240246935A1 (Plexium, Inc., priority 2021, published 2024)
pEC50: −log10 of the molar value.

Experiments:
[1] = molecular target: human E3 ligase component cereblon (CRBN) (Homo sapiens (Human), UniProt Q96SW2); test: Cereblon (CRBN) target engagement, NanoBRET TE Intracellular E3 Ligase Assay in transfected HEK-293T cells; details: read-out: CRBN Binding EC50
Method in brief: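 Live HEK-293T cells co-transfected overnight with NanoLuc-CRBN (CRBN at NanoLuc C-terminus) and DDB1 vectors (10:990 ng) were given CRBN tracer and an 11-point compound series for 2 h at 37° C. BRET read at 450/610 nm with extracellular NanoLuc inhibitor present; IC50 from four-parameter logistic fit.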

[2] = test system: IKZF2 (Helios); test: IKZF2 reporter degradation assay (HEK 293T IKZF2-mNeonGreen reporter cell line); format: cell-based, human; details: 1 μM compound, 24 hour incubation, HEK 293T IKZF2-mNeonGreen reporter
Method in brief: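 HEK 293T lines stably expressing each IKZF-GGGGS×3-mNeonGreen-P2A-mScarlet reporter, 4000 cells/well in FluoroBrite medium, treated with compound (≤0.5% DMSO) for 24 h at 37 °C. Imaging measured percent mNeonGreen-positive cells, with mScarlet used for segmentation; DC50 from four-parameter logistic fit.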

Chain of human E3 ligase component cereblon (CRBN) (Q96SW2 whole entry): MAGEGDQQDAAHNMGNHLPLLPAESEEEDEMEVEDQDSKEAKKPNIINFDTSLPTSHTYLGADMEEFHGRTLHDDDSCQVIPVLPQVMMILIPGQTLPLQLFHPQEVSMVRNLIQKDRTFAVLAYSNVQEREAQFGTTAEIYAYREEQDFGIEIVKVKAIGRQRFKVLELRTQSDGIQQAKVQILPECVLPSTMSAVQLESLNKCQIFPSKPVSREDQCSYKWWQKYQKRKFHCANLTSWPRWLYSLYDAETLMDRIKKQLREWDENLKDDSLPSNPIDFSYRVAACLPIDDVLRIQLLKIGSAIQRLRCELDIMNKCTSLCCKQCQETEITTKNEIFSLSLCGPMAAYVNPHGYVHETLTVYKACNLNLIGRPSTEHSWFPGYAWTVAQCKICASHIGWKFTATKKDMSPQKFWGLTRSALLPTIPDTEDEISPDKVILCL
Chain of human E3 ligase component cereblon (CRBN) (Q16531 whole entry partner): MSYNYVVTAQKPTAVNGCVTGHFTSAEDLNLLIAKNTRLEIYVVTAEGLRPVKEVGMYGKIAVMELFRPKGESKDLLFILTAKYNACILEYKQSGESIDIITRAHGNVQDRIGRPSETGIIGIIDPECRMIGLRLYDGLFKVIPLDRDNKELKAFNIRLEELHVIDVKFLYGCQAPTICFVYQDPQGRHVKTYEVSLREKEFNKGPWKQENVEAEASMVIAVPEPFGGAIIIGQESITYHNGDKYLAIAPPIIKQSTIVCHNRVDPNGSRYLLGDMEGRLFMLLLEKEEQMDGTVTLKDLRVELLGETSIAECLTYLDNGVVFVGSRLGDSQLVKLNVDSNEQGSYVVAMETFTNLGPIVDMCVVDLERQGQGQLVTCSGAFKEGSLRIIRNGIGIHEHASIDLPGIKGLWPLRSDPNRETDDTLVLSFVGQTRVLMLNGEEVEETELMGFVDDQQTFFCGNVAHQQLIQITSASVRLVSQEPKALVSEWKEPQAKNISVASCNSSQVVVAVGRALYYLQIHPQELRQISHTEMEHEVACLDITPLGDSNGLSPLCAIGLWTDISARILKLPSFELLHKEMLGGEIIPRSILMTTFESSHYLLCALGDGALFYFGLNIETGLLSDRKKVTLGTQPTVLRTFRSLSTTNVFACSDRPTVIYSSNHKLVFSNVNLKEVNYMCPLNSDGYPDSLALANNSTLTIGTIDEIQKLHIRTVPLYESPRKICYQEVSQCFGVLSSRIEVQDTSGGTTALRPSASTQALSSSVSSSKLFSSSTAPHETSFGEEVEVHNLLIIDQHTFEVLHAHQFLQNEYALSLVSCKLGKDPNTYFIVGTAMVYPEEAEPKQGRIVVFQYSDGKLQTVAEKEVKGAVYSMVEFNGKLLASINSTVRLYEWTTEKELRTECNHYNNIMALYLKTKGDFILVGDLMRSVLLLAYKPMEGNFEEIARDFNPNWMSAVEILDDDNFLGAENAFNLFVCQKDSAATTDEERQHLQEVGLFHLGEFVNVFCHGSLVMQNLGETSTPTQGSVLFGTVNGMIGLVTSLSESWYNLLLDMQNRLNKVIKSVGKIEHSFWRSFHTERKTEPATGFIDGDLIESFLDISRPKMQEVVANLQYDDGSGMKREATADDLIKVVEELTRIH

Structure (SMILES)	pEC50 [1]	IKZF2 % Degradation @ 1 μM [2]
O=C1CCC(N2Cc3cc(O[C@H]4CCC[C@@H]4N4CCC(c5ccccc5)C4)ccc3C2=O)C(=O)N1 (stereo partly drawn) [Compound 121, 3-(1-oxo-5-(((1S,2S)-2-(3-phenylpyrrolidin-1-yl)cyclopentyl)oxy)isoindolin-2-yl)piperidine-2,6-dione]	8.22	75.9%
N#Cc1cc(Cl)ccc1C1CN([C@H]2CCCC[C@@H]2Oc2ccc3c(c2)CN(C2CCC(=O)NC2=O)C3=O)C1 (mixture of isomers) [Compound 99, Rac-5-chloro-2-(1-((trans)-2-((2-(2,6-dioxopiperidin-3-yl)-1-oxoisoindolin-5-yl)oxy)cyclohexyl)azetidin-3-yl)benzonitrile]	7.36	80.2%
O=C1CCC(N2Cc3cc(O[C@H]4CCCC[C@H]4N4CCC4c4ccccc4)ccc3C2=O)C(=O)N1 (stereo partly drawn) [Compound 56, 3-(1-oxo-5-(((1S,2R)-2-(2-phenylazetidin-1-yl)cyclohexyl)oxy)isoindolin-2-yl)piperidine-2,6-dione]	6.62	<15%
N#Cc1cc(F)ccc1C1CN([C@H]2CCCC[C@@H]2Oc2ccc3c(c2)CN(C2CCC(=O)NC2=O)C3=O)C1 (single isomer, unassigned) [Compound 45]	7.66	88%
O=C1CCC(N2Cc3cc(O[C@H]4CCCC[C@@H]4N4CCC(c5ccccc5)CC4)ccc3C2=O)C(=O)N1 (stereo partly drawn) [Compound 79, 3-(1-oxo-5-(((1S,2S)-2-(4-phenylpiperidin-1-yl)cyclohexyl)oxy)isoindolin-2-yl)piperidine-2,6-dione]	7.92	<15%
O=C1CCC(N2Cc3cc(O[C@@H]4CCCC[C@@H]4N4CC(c5ccc(OC(F)(F)F)cc5)C4)ccc3C2=O)C(=O)N1 (mixture of isomers) [Compound 61, Rac-3-(1-oxo-5-(((cis)-2-(3-(4-(trifluoromethoxy)phenyl)azetidin-1-yl)cyclohexyl)oxy)isoindolin-2-yl)piperidine-2,6-dione]	7.85	36.3%
N#Cc1cc(F)ccc1C1CN([C@@H]2CCCC[C@H]2Oc2ccc3c(c2)CN(C2CCC(=O)NC2=O)C3=O)C1 (single isomer, unassigned) [Compound 43]	7.38	<15%
O=C1CCC(N2Cc3cc(O[C@H]4CCCC[C@@H]4N4CC(c5ccc(OC(F)(F)F)cc5)C4)ccc3C2=O)C(=O)N1 (mixture of isomers) [Compound 60, Rac-3-(1-oxo-5-(((trans)-2-(3-(4-(trifluoromethoxy)phenyl)azetidin-1-yl)cyclohexyl)oxy)isoindolin-2-yl)piperidine-2,6-dione]	7.82	84.9%
O=C1CCC(N2Cc3cc(O[C@H]4CCCC[C@@H]4N4CC(c5ccc(F)cc5F)C4)ccc3C2=O)C(=O)N1 (stereo partly drawn) [Compound 57, 3-(5-(((1S,2S)-2-(3-(2,4-difluorophenyl)azetidin-1-yl)cyclohexyl)oxy)-1-oxoisoindolin-2-yl)piperidine-2,6-dione]	8.22	85.8%

The next lines start with results.

pEC50 [1]	Structure (SMILES)	IKZF2 % Degradation @ 1 μM [2]
7.62	N#Cc1ccc(C2CN([C@H]3CCCC[C@@H]3Oc3ccc4c(c3)CN(C3CCC(=O)NC3=O)C4=O)C2)c(F)c1 (mixture of isomers) [Compound 116, Rac-4-(1-((trans)-2-((2-(2,6-dioxopiperidin-3-yl)-1-oxoisoindolin-5-yl)oxy)cyclohexyl)azetidin-3-yl)-3-fluorobenzonitrile]	<15%
7.92	N#Cc1ccc(C2CN([C@@H]3CCCC[C@@H]3Oc3ccc4c(c3)CN(C3CCC(=O)NC3=O)C4=O)C2)c(Cl)c1 (mixture of isomers) [Compound 75, Rac-3-chloro-4-(1-((cis)-2-((2-(2,6-dioxopiperidin-3-yl)-1-oxoisoindolin-5-yl)oxy)cyclohexyl)azetidin-3-yl)benzonitrile]	36.8%
7.44	O=C1CCC(N2Cc3cc(OC4CCCCC4N4CC(c5ccccc5)C4)ccc3C2=O)C(=O)N1 (stereo not drawn) [Compound 118, 3-(1-oxo-5-((2-(3-phenylazetidin-1-yl)cyclohexyl)oxy)isoindolin-2-yl)piperidine-2,6-dione]	<15%
7.43	N#Cc1cc(F)ccc1C1CN([C@@H]2CCC[C@H]2Oc2ccc3c(c2)CN(C24CC(C2)C(=O)NC4=O)C3=O)C1 (racemic) [Compound 71, Rac-2-(1-((trans)-2-((2-(2,4-dioxo-3-azabicyclo[3.1.1]heptan-1-yl)-1-oxoisoindolin-5-yl)oxy)cyclopentyl)azetidin-3-yl)-5-fluorobenzonitrile]	<15%
8.30	COc1cccc(C2CN([C@H]3CCCC[C@@H]3Oc3ccc4c(c3)CN(C3CCC(=O)NC3=O)C4=O)C2)c1 (stereo partly drawn) [Compound 126, 3-(5-(((1S,2S)-2-(3-(3-methoxyphenyl)azetidin-1-yl)cyclohexyl)oxy)-1-oxoisoindolin-2-yl)piperidine-2,6-dione]	84.3%
6.80	O=C1CCC(N2Cc3cc(O[C@H]4CCCC[C@@H]4N4CCC4c4ccccc4)ccc3C2=O)C(=O)N1 (stereo partly drawn) [Compound 55, 3-(1-oxo-5-(((1S,2S)-2-(2-phenylazetidin-1-yl)cyclohexyl)oxy)isoindolin-2-yl)piperidine-2,6-dione]	38.1%
7.96	O=C1CCC(N2Cc3cc(O[C@H]4CCC[C@@H]4N4CC(c5ccccc5)C4)ccc3C2=O)C(=O)N1 (stereo partly drawn) [Compound 120, 3-(1-oxo-5-(((1S,2S)-2-(3-phenylazetidin-1-yl)cyclopentyl)oxy)isoindolin-2-yl)piperidine-2,6-dione]	78.8%
7.72	N#Cc1ccc(C2CN(C3CCCC3Oc3ccc4c(c3)CN(C3CCC(=O)NC3=O)C4=O)C2)cc1F (stereo not drawn) [Compound 110, 4-(1-(2-((2-(2,6-dioxopiperidin-3-yl)-1-oxoisoindolin-5-yl)oxy)cyclopentyl)azetidin-3-yl)-2-fluorobenzonitrile]	48.8%
7.48	N#Cc1cc(F)ccc1C1CN([C@H]2CCCC[C@@H]2Oc2ccc3c(c2)CN(C2CCC(=O)NC2=O)C3=O)C1 (mixture of isomers) [Compound 101, Rac-2-(1-((trans)-2-((2-(2,6-dioxopiperidin-3-yl)-1-oxoisoindolin-5-yl)oxy)cyclohexyl)azetidin-3-yl)-5-fluorobenzonitrile]	79.2%
7.70	N#Cc1ccc(C2CN([C@H]3CCCC[C@@H]3Oc3ccc4c(c3)CN(C3CCC(=O)NC3=O)C4=O)C2)c(Cl)c1 (mixture of isomers) [Compound 74, Rac-3-chloro-4-(1-((trans)-2-((2-(2,6-dioxopiperidin-3-yl)-1-oxoisoindolin-5-yl)oxy)cyclohexyl)azetidin-3-yl)benzonitrile]	63%
7.19	N#Cc1cc(F)ccc1C1CN([C@H]2CCCC[C@@H]2Oc2ccc3c(c2)CN(C2CCC(=O)NC2=O)C3=O)C1 (single isomer, unassigned) [Compound 44]	85.6%
7.66	N#Cc1cc(F)ccc1C1CN([C@H]2CCCC[C@H]2Oc2ccc3c(c2)CN(C2CCC(=O)NC2=O)C3=O)C1 (stereo partly drawn) [Compound 46, 2-(1-((1S,2R)-2-((2-(2,6-dioxopiperidin-3-yl)-1-oxoisoindolin-5-yl)oxy)cyclohexyl)azetidin-3-yl)-5-fluorobenzonitrile]	<15%
